Experimental data taken from publication PMC5216056 (Nature Communications, 2017).
Entries after “also recorded” stand apart in the source; their conditions may differ. Like-named read-outs stand apart in the source and are kept apart here.

Experiments:
[1] = target: T1, Rat recombinant TRPV4 (Rattus norvegicus, UniProt Q9ERZ8); assay: cell-based; format: cell-based; conditions: for IC50: vs 4αPDD 1μM, read-out: TRPV4 IC50 for desensitization
T1 construct: expressed in transfected cells; host or cells: HEK293 (TRPV4-HEK-293, gift from HB Bradshaw, Indiana University)

[2] = target: T2, PAC1 (PACAP) (h) (Homo sapiens, UniProt P41586); assay: CEREP panel; format: binding; conditions: read-out: % inhibition PAC1 (PACAP) (h)
T2 construct: CEREP (contract assay)
T2 sequence (P41586 21-468): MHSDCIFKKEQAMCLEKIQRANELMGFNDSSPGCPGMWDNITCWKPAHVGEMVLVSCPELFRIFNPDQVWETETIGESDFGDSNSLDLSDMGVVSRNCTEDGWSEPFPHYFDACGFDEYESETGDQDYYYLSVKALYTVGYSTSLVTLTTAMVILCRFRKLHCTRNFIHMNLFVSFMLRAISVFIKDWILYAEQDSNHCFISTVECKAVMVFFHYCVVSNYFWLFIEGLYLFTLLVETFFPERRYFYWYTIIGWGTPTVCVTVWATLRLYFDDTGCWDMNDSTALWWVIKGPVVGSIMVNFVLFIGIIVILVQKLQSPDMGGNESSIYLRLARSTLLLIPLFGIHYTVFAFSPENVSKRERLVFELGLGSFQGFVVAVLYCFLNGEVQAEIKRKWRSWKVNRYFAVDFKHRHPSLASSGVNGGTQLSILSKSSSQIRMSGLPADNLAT

[3] = target: T3, alpha 1A (h) (Homo sapiens, UniProt P35348); assay: CEREP panel; format: binding; conditions: for inhibition at 10 µM: read-out: % inhibition alpha 1A (h)
T3 construct: CEREP
T3 sequence (P35348 1-466): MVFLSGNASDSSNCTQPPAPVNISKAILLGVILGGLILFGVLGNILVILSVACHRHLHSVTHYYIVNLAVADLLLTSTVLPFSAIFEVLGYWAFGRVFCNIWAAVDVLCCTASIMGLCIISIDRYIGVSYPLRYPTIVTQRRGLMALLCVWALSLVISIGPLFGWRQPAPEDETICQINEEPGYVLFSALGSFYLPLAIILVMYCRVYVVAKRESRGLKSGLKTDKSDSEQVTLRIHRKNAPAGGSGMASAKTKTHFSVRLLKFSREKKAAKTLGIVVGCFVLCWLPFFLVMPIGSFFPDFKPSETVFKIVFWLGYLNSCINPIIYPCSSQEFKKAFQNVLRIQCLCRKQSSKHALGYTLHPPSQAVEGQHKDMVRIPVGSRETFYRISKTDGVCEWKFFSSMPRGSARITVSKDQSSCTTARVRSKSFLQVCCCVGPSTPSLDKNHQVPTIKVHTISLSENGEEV

[4] = test system: C57BL6/J mice; assay: Triad assay: catalepsy; format: in vivo, mouse
[5] = target: T4, AT2 (h) (Homo sapiens, UniProt P50052); assay: CEREP panel; format: binding; conditions: read-out: % inhibition AT2 (h)
T4 construct: CEREP
T4 sequence (P50052 1-363): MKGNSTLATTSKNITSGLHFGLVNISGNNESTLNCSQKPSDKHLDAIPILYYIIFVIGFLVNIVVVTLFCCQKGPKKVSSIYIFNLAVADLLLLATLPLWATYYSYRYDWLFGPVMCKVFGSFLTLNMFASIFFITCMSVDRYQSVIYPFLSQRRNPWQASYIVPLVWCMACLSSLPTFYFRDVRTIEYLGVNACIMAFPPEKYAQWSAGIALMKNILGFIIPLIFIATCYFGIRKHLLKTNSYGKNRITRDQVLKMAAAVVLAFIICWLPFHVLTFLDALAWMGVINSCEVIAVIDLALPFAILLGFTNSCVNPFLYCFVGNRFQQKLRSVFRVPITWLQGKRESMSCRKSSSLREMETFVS

[6] = test system: P2Y; assay: CEREP panel; format: binding; conditions: 10 µM
[7] = test system: C57BL6/J mice; assay: Triad assay: hypothermia; format: in vivo, mouse
[8] = target: T5, NTS1 (NT1) (h) (Homo sapiens, UniProt P30989); assay: CEREP panel; format: binding; conditions: read-out: % inhibition NTS1 (NT1) (h)
T5 construct: CEREP (contract assay)

[9] = test system: BB; assay: CEREP panel; format: binding; conditions: 10 µM
[10] = target: T6, beta 2 (h) (Homo sapiens, UniProt P07550); assay: CEREP panel; format: binding
T6 construct: CEREP

[11] = target: T7, A2A (h) (Homo sapiens, UniProt P29274); assay: CEREP panel; format: binding; conditions: read-out: % inhibition A2A (h)
T7 construct: CEREP

[12] = test system: Ca2+ channel (verapamil site); assay: CEREP panel; format: binding; conditions: 10 µM
[13] = target: mCB2R (Mus musculus, UniProt P47936); assay: [35S]GTPγS assay; format: biochemical; set-up: from tissue; host or cells: spleen of male C57BL/6J mice; conditions: for Emax: read-out: Emax ± SEM GTPγS mCB2R
[14] = target: T8, NK1 (h) (Homo sapiens, UniProt P25103); assay: CEREP panel; format: binding; conditions: read-out: % inhibition NK1 (h)
T8 construct: CEREP (contract assay)

[15] = target: T9, CB1 (h) (Homo sapiens, UniProt P21554); assay: biochemical; format: binding; conditions: read-out: % inhibition CB1 (h)
T9 construct: CEREP (contract assay)

[16] = target: T10, D1 (h) (Homo sapiens, UniProt P21728); assay: CEREP panel; format: binding
T10 construct: CEREP (contract assay)

[17] = target: T11, sst4 (h) (Homo sapiens, UniProt P31391); assay: CEREP panel; format: binding; conditions: for % inhibition sst4 (h): 10 µM
T11 construct: CEREP (contract assay)

[18] = target: T12, 5-HT2A (h) (Homo sapiens, UniProt P28223); assay: CEREP panel; format: binding; conditions: for % inhibition 5-HT2A (h): 10 µM
T12 construct: CEREP (contract assay)

[19] = target: human P-gp (Homo sapiens, UniProt P08183); conditions: efflux ratio
[20] = 1 μM
[21] = test system: sigma (non-selective) (h); format: binding, human; conditions: 10 µM
[22] = 1-100 mg kg^−1 i.p., cumulative, mice

T1 sequence (Q9ERZ8 whole entry): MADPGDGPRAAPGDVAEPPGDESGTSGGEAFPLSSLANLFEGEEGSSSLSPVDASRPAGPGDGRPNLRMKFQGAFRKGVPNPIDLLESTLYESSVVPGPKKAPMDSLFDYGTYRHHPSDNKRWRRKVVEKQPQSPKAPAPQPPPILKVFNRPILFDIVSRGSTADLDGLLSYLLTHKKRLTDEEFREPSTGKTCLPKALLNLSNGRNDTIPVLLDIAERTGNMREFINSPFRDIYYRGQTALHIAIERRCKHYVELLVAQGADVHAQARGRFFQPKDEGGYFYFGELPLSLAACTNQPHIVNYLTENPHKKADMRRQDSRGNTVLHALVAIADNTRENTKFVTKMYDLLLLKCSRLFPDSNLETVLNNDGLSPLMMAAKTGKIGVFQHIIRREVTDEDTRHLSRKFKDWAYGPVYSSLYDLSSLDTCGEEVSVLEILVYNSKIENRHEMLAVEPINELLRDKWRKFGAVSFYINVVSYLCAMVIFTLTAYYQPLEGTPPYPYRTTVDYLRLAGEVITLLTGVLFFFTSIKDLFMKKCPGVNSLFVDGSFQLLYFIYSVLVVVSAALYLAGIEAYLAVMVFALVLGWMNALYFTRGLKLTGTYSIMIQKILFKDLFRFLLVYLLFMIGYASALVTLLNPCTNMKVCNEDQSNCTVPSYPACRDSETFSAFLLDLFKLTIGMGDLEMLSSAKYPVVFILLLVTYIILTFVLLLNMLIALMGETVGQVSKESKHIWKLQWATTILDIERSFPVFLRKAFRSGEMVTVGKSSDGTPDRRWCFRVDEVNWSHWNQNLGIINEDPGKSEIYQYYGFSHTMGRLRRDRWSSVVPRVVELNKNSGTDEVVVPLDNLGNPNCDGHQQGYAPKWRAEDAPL
T11 sequence (P31391 whole entry): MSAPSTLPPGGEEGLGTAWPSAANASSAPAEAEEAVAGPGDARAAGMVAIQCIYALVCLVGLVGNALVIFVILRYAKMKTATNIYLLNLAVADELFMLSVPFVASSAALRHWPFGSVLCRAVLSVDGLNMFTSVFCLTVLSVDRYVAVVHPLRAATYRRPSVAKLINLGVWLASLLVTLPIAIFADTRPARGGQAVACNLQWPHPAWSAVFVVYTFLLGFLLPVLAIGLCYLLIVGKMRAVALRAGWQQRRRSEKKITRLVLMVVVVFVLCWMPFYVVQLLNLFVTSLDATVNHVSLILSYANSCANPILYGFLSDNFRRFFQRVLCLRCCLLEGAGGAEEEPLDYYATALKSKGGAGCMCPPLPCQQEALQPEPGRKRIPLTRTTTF
T12 sequence (P28223 whole entry): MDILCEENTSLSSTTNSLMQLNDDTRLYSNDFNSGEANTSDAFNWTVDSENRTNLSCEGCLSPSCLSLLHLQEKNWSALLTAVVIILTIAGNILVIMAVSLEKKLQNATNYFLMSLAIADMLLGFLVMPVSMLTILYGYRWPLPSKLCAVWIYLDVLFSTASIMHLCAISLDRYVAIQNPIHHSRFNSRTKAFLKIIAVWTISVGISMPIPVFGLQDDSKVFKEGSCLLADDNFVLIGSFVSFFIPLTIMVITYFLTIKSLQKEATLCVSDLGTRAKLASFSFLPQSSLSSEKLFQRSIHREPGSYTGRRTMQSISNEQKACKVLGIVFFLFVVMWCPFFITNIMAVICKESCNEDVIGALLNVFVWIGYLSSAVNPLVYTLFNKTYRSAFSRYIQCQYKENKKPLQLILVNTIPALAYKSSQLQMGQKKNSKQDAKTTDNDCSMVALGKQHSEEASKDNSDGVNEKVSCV
Chain of mCB2R (P47936 whole entry): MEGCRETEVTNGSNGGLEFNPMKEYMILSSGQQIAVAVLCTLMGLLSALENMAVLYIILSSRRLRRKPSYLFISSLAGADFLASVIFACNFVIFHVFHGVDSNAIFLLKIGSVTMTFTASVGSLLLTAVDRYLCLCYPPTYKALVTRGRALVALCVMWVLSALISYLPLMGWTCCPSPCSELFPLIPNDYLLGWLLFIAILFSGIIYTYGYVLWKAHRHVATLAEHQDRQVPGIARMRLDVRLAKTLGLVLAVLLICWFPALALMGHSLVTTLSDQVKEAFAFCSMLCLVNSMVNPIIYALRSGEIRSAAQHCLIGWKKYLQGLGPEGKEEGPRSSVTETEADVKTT
T6 sequence (P07550 whole entry): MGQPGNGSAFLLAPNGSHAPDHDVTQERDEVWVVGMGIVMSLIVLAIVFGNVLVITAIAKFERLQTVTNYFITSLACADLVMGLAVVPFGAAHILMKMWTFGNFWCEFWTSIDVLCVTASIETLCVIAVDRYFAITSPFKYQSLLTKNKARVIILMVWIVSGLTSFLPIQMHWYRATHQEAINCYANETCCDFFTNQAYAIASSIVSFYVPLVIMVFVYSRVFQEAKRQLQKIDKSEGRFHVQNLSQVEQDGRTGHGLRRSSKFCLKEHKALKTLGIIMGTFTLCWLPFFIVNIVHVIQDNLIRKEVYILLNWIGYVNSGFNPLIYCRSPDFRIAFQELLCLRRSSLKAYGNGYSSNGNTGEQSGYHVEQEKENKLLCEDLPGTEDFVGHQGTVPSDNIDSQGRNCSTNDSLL
Chain of human P-gp (P08183 whole entry): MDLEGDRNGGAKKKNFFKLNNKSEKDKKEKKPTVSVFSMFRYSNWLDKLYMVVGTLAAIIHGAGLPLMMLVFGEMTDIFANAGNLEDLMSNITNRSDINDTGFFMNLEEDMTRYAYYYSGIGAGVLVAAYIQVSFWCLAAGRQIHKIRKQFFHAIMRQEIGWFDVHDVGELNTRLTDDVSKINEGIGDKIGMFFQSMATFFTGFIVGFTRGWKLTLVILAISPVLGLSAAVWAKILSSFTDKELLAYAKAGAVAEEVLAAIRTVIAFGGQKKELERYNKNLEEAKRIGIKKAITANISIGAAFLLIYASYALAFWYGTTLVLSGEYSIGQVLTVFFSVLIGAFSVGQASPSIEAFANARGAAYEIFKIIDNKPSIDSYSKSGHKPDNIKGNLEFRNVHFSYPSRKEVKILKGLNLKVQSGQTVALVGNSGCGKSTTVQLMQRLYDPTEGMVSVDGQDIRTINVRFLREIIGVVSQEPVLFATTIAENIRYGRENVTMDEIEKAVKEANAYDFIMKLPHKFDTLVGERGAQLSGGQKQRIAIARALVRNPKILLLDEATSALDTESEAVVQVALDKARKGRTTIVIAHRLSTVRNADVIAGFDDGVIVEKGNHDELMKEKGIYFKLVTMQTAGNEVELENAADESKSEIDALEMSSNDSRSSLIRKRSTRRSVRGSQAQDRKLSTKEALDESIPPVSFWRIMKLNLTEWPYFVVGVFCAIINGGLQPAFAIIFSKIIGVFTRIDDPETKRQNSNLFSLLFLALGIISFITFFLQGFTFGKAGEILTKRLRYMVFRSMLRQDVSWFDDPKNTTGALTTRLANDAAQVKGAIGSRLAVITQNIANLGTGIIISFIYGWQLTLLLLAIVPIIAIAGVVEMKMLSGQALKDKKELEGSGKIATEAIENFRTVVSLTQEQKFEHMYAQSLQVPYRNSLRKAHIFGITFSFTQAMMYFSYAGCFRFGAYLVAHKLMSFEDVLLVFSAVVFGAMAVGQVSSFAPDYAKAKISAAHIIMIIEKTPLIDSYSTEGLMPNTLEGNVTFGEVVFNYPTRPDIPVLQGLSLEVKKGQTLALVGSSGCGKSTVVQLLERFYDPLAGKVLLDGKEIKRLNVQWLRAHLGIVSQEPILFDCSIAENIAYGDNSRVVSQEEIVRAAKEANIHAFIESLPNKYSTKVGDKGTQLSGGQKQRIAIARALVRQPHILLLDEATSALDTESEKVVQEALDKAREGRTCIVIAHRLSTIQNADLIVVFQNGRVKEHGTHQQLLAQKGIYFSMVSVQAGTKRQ
T10 sequence (P21728 whole entry): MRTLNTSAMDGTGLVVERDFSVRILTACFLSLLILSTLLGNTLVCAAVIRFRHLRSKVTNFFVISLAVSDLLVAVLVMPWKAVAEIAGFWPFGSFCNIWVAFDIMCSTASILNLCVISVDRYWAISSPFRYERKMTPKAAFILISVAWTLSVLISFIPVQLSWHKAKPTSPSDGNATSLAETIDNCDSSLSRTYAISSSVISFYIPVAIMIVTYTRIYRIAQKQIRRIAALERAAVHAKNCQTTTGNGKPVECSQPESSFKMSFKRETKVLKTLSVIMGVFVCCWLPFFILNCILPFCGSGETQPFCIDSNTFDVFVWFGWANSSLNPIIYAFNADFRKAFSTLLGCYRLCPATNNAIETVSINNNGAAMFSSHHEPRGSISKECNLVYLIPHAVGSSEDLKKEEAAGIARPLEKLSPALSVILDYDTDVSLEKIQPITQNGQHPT
T5 sequence (P30989 whole entry): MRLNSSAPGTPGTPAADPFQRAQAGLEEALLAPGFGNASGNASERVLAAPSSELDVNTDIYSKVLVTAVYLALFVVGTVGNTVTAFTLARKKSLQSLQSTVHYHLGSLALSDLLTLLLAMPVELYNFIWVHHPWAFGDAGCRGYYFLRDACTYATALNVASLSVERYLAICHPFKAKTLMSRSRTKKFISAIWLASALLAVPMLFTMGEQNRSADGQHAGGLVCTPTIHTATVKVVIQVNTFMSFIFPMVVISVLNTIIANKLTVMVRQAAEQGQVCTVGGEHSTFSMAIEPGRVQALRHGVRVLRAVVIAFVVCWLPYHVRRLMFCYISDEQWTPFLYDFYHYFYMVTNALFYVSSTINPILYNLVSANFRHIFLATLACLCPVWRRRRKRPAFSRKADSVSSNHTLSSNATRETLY

## CN1CCCC[C@@H]1Cn1cc(C(=O)c2cc([N+](=O)[O-])ccc2I)c2ccccc21 [(R)-AM1241]
[1]
  TRPV4 Efficacy (% ionomycin 4μM): < 10%
  IC50: 8.7 ± 0.5 µM

## CCCCCCC(C)(C)c1cc(OC)c([C@@H]2C=C(CO)[C@@H]3C[C@H]2C3(C)C)c(OC)c1 [HU308]
[2]
  inhibition at 10 µM: -3%
[3]
  inhibition at 10 µM: 2%
[4]; [22]
  catalepsy, cannabimimetic effect: did not produce detectable; also recorded: lacked appreciable pharmacological effects
[5]
  inhibition at 10 µM: 42%
[6]
  % inhibition P2Y: 1%
[7]; [22]
  hypothermia, cannabimimetic effect: did not produce detectable; also recorded: lacked appreciable pharmacological effects
[1]
  TRPV4 Efficacy (% ionomycin 4μM): < 10%
  IC50: > 100 µM
[8]
  inhibition at 10 µM: -23%
[9]
  % inhibition BB: 3%
[10]; read-out: % inhibition beta 2 (h)
  inhibition at 10 µM: -30%
[11]
  inhibition at 10 µM: 25%
[12]
  % inhibition Ca2+ channel (verapamil site): 3%
[13]
  EC50: 0.148 µM
  Emax: 96 ± 3%
[14]
  inhibition at 10 µM: 29%
[15]
  inhibition at 10 µM: 18%

## Cc1c(C(=O)NN2CCCCC2)nn(-c2ccc(Cl)cc2Cl)c1-c1ccc(I)cc1 [AM251]
[3]; 10 µM
  % inhibition alpha 1A (h): 6%
[1]
  TRPV4 Efficacy (% ionomycin 4μM): < 10%
[16]; 10 µM
  % inhibition D1 (h): 58%
[17]
  % inhibition sst4 (h): 51%

## CCCCCCC(C)(C)c1ccc([C@@H]2C[C@H](O)CC[C@H]2CCCO)c(O)c1 [CP55940]
[3]; 10 µM
  inhibition at 10 µM: 57%
[18]
  inhibition at 10 µM: 95%
[13]
  EC50: 0.0162 µM
  Emax: 102 ± 1%
[16]
  inhibition at 10 µM: 77%
[17]
  inhibition at 10 µM: 63%

## COc1ccc(C(=O)c2c(C)n(CCN3CCOCC3)c3cc(I)ccc23)cc1 [AM630]
[19]
  P-gp (ER) human: 1.3
[3]; 10 µM
  % inhibition alpha 1A (h): 47%
[18]
  % inhibition 5-HT2A (h): 70%
[1]
  TRPV4 Efficacy (% ionomycin 4μM): < 10%
  IC50: 3.2 ± 0.1 µM
[20]
  CL hepatocytes human: 16 µL/min/mio cells
[10]; 10 µM
  % inhibition beta 2 (h): 11%

## Cc1c(C(=O)NN2CCCCC2)nn(-c2ccc(Cl)cc2Cl)c1-c1ccc(Cl)cc1 [SR141716A]
[4]; mouse, in vivo
  antagonism of HU210-induced catalepsy: attenuated; also recorded: significantly antagonized
[7]; mouse, in vivo
  antagonism of HU210-induced hypothermia: attenuated; also recorded: significantly antagonized
[1]
  TRPV4 Efficacy (% ionomycin 4μM): < 10%
  IC50: 2 ± 0.1 µM

## CN1CCCC[C@H]1Cn1cc(C(=O)c2cc([N+](=O)[O-])ccc2I)c2ccccc21 [(S)-AM1241]
[19]
  P-gp (ER) human: 2.7
[3]; 10 µM
  % inhibition alpha 1A (h): 75%
[18]
  % inhibition 5-HT2A (h): 67%
[21]
  % inhibition sigma (non-selective) (h): 101%
[1]
  TRPV4 Efficacy (% ionomycin 4μM): < 10%
  IC50: 8.6 ± 0.3 µM
[20]
  CL hepatocytes human: 37 µL/min/mio cells
[17]
  % inhibition sst4 (h): 63%
